According to PubChem BioAssay (NCI):
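These data come from cells grown in 96-well plates and exposed to compound for 48 hours at five concentrations. At the GI50, growth is halved. TGI marks complete inhibition of growth.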

Legend:
Test in all cases: NCI tumour cell line growth inhibition, 48 h
TK-10 renal = test system: TK-10 renal
HCT-15 colon = test system: HCT-15 colon
U251 CNS = test system: U251 CNS
MDA-MB-435 = test system: MDA-MB-435
HOP-62 NSCLC = test system: HOP-62 NSCLC
COLO 205 colon = test system: COLO 205 colon
SR leukemia = test system: SR leukemia
M14 melanoma = test system: M14 melanoma
NCI/ADR-RES ovarian = test system: NCI/ADR-RES ovarian
HCC-2998 colon = test system: HCC-2998 colon

COc1cc(C2C3=C(COC3=O)Nc3c2ccc2c3CCCC2)cc2c1OCO2 (stereo unspecified)
GI50 (TK-10 renal): 14.9 µM
TGI (TK-10 renal): > 94.3 µM
GI50 (HCT-15 colon): 0.0432 µM
TGI (HCT-15 colon): > 100 µM
GI50 (U251 CNS): 41.8 nM
TGI (U251 CNS): 14.9 µM
GI50 (MDA-MB-435): 19.9 nM
TGI (MDA-MB-435): 0.0497 µM
GI50 (HOP-62 NSCLC): 42.6 nM
TGI (HOP-62 NSCLC): 18.7 µM
GI50 (COLO 205 colon): 0.0322 µM
TGI (COLO 205 colon): 0.0942 µM
GI50 (SR leukemia): 35.4 nM
TGI (SR leukemia): > 21 µM
GI50 (M14 melanoma): 33 nM
TGI (M14 melanoma): 67.4 µM
GI50 (NCI/ADR-RES ovarian): 0.0391 µM
TGI (NCI/ADR-RES ovarian): 19.1 µM
GI50 (HCC-2998 colon): 52 nM

COc1cc(-c2cc(/C=C/C(=O)c3ccc(Cl)c(Cl)c3)[nH]n2)cc(OC)c1OC
GI50 (TK-10 renal): 8.34 µM
TGI (TK-10 renal): 43.2 µM
GI50 (HCT-15 colon): 4.29 µM
GI50 (U251 CNS): 8700 nM
TGI (U251 CNS): 80.5 µM
GI50 (MDA-MB-435): 5650 nM
TGI (MDA-MB-435): > 100 µM
GI50 (HOP-62 NSCLC): 1720 nM
TGI (HOP-62 NSCLC): 7.66 µM
GI50 (COLO 205 colon): 1.26 µM
TGI (COLO 205 colon): 15.8 µM
GI50 (SR leukemia): 393 nM
TGI (SR leukemia): 13.5 µM
GI50 (M14 melanoma): 18200 nM
TGI (M14 melanoma): > 100 µM
GI50 (NCI/ADR-RES ovarian): 10.6 µM
TGI (NCI/ADR-RES ovarian): > 100 µM
GI50 (HCC-2998 colon): 9560 nM
TGI (HCC-2998 colon): 31.4 µM

C/C=C/[C@H]1O[C@@H]2C(=C[C@H]1O)C(=O)O[C@H]2C
GI50 (TK-10 renal): 14.9 µM
TGI (TK-10 renal): 33 µM
GI50 (HCT-15 colon): 15.7 µM
TGI (HCT-15 colon): 34.7 µM
GI50 (U251 CNS): 18400 nM
TGI (U251 CNS): 36.8 µM
GI50 (MDA-MB-435): 21900 nM
TGI (MDA-MB-435): 43.5 µM
GI50 (HOP-62 NSCLC): 23400 nM
TGI (HOP-62 NSCLC): 48.4 µM
GI50 (COLO 205 colon): 4.02 µM
TGI (COLO 205 colon): > 32.1 µM
GI50 (SR leukemia): 7290 nM
TGI (SR leukemia): > 100 µM
GI50 (M14 melanoma): 14700 nM
TGI (M14 melanoma): 30.6 µM
GI50 (NCI/ADR-RES ovarian): 26 µM
TGI (NCI/ADR-RES ovarian): > 57 µM
GI50 (HCC-2998 colon): 27900 nM
TGI (HCC-2998 colon): 55.9 µM

CCN(CC)CCN(Cc1ccc(F)cc1)c1ccc(CO)c(Cl)c1
GI50 (TK-10 renal): 4.86 µM
TGI (TK-10 renal): 22.2 µM
GI50 (HCT-15 colon): 12.7 µM
TGI (HCT-15 colon): > 100 µM
GI50 (U251 CNS): 22800 nM
TGI (U251 CNS): > 100 µM
GI50 (MDA-MB-435): 23500 nM
TGI (MDA-MB-435): 74.7 µM
GI50 (HOP-62 NSCLC): 9840 nM
TGI (HOP-62 NSCLC): 63.3 µM
GI50 (COLO 205 colon): 2.2 µM
TGI (COLO 205 colon): 5.54 µM
GI50 (SR leukemia): 23500 nM
TGI (SR leukemia): 67.9 µM
GI50 (M14 melanoma): 17200 nM
TGI (M14 melanoma): 35.2 µM
GI50 (NCI/ADR-RES ovarian): 9.64 µM
TGI (NCI/ADR-RES ovarian): 50.2 µM
GI50 (HCC-2998 colon): 3090 nM
TGI (HCC-2998 colon): 12.8 µM

C[C@]12CC[C@H]3[C@@H](C[C@@H]4SC(Nc5ccccc5)=N[C@@]45CC(O)CC[C@]35C)[C@@H]1CCC2O (stereo partly specified)
GI50 (TK-10 renal): 2.91 µM
TGI (TK-10 renal): 6.63 µM
GI50 (HCT-15 colon): 1.6 µM
TGI (HCT-15 colon): 5.15 µM
GI50 (U251 CNS): 1360 nM
TGI (U251 CNS): 2.79 µM
GI50 (MDA-MB-435): 2250 nM
TGI (MDA-MB-435): 7.03 µM
GI50 (HOP-62 NSCLC): 2470 nM
TGI (HOP-62 NSCLC): 6.54 µM
GI50 (COLO 205 colon): 2.45 µM
TGI (COLO 205 colon): 5.61 µM
GI50 (SR leukemia): 241 nM
TGI (SR leukemia): 6.1 µM
GI50 (M14 melanoma): 1840 nM
TGI (M14 melanoma): 4.27 µM
GI50 (NCI/ADR-RES ovarian): 3.39 µM
TGI (NCI/ADR-RES ovarian): 91.7 µM
GI50 (HCC-2998 colon): 1970 nM
TGI (HCC-2998 colon): 3.56 µM

OCCNCCCOc1ccc2ncnc(Nc3ccc(Oc4cccc(C(F)(F)F)c4)c(Cl)c3)c2c1
GI50 (TK-10 renal): 1.13 µM
TGI (TK-10 renal): 2.54 µM
GI50 (HCT-15 colon): 1.54 µM
TGI (HCT-15 colon): 3.01 µM
GI50 (MDA-MB-435): 1720 nM
TGI (MDA-MB-435): 3.21 µM
GI50 (SR leukemia): 1620 nM
TGI (SR leukemia): 4.65 µM
GI50 (NCI/ADR-RES ovarian): 2.65 µM
TGI (NCI/ADR-RES ovarian): 9.3 µM
GI50 (HCC-2998 colon): 1640 nM
TGI (HCC-2998 colon): 3.1 µM

CCCCNC(=O)Oc1ccc(/C(=C(/C)Cc2ccc(OC)cc2)c2ccc(OCCN3CCCC3)cc2)cc1
GI50 (TK-10 renal): 4.31 µM
TGI (TK-10 renal): 17.8 µM
GI50 (HCT-15 colon): 1.5 µM
TGI (HCT-15 colon): 3.13 µM
GI50 (U251 CNS): 1820 nM
TGI (U251 CNS): 3.31 µM
GI50 (MDA-MB-435): 1630 nM
TGI (MDA-MB-435): 3.1 µM
GI50 (HOP-62 NSCLC): 2650 nM
TGI (HOP-62 NSCLC): 11.3 µM
GI50 (COLO 205 colon): 1.83 µM
TGI (COLO 205 colon): 3.57 µM
GI50 (SR leukemia): 1860 nM
TGI (SR leukemia): 5.44 µM
GI50 (M14 melanoma): 1810 nM
TGI (M14 melanoma): 3.48 µM
GI50 (NCI/ADR-RES ovarian): 3.11 µM
TGI (NCI/ADR-RES ovarian): 11.6 µM
GI50 (HCC-2998 colon): 1830 nM
TGI (HCC-2998 colon): 3.48 µM

COc1c(-c2ccc(O)c(O)c2)oc2c(O)c(O)cc(O)c2c1=O
TGI (TK-10 renal): > 100 µM
TGI (HCT-15 colon): > 100 µM
TGI (U251 CNS): > 100 µM
TGI (MDA-MB-435): > 100 µM
TGI (HOP-62 NSCLC): 67.4 µM
TGI (COLO 205 colon): > 100 µM
TGI (SR leukemia): 50.8 µM
TGI (NCI/ADR-RES ovarian): > 100 µM
TGI (HCC-2998 colon): > 100 µM

O=C1C(=O)c2ccccc2C(O)=C1CCCc1ccc(C2CCCCCC2)cc1
GI50 (TK-10 renal): 3.14 µM
TGI (TK-10 renal): 57 µM
GI50 (HCT-15 colon): 0.539 µM
TGI (HCT-15 colon): > 85.9 µM
GI50 (U251 CNS): 687 nM
TGI (U251 CNS): 25.3 µM
GI50 (MDA-MB-435): 608 nM
TGI (MDA-MB-435): 48.2 µM
GI50 (HOP-62 NSCLC): 1270 nM
TGI (HOP-62 NSCLC): 27.3 µM
GI50 (COLO 205 colon): 4.9 µM
TGI (COLO 205 colon): 20 µM
GI50 (SR leukemia): 1770 nM
TGI (SR leukemia): > 100 µM
GI50 (M14 melanoma): 1860 nM
TGI (M14 melanoma): 21 µM
GI50 (NCI/ADR-RES ovarian): 0.702 µM
TGI (NCI/ADR-RES ovarian): 11.9 µM
GI50 (HCC-2998 colon): 863 nM
TGI (HCC-2998 colon): 22.7 µM

Cc1[nH]c(-c2nc3ccccc3[nH]2)c(C)c1C(=O)NC(C)C1CCCCC1 (stereo unspecified)
GI50 (TK-10 renal): 21.5 µM
TGI (TK-10 renal): 41.6 µM
GI50 (HCT-15 colon): 4.77 µM
TGI (HCT-15 colon): 19.6 µM
GI50 (U251 CNS): 5580 nM
TGI (U251 CNS): 25.1 µM
GI50 (MDA-MB-435): 2290 nM
TGI (MDA-MB-435): 5.85 µM
GI50 (HOP-62 NSCLC): 12700 nM
TGI (HOP-62 NSCLC): 38.3 µM
GI50 (COLO 205 colon): 18.3 µM
TGI (COLO 205 colon): 58 µM
GI50 (SR leukemia): 4380 nM
TGI (SR leukemia): 34.5 µM
GI50 (M14 melanoma): 3280 nM
TGI (M14 melanoma): 17.8 µM
GI50 (NCI/ADR-RES ovarian): 10.2 µM
TGI (NCI/ADR-RES ovarian): 28 µM
GI50 (HCC-2998 colon): 13600 nM
TGI (HCC-2998 colon): 34.6 µM

CCC(=O)Nc1ccccc1C#C/C=C\C#Cc1ccccc1C(F)(F)F
GI50 (TK-10 renal): 4.46 µM
TGI (TK-10 renal): > 50 µM
GI50 (HCT-15 colon): 3.9 µM
TGI (HCT-15 colon): > 50 µM
GI50 (U251 CNS): 2420 nM
TGI (U251 CNS): > 40.7 µM
GI50 (MDA-MB-435): 851 nM
TGI (MDA-MB-435): 1.84 µM
GI50 (HOP-62 NSCLC): 2420 nM
TGI (HOP-62 NSCLC): > 50 µM
GI50 (COLO 205 colon): 4.59 µM
TGI (COLO 205 colon): > 25.9 µM
GI50 (SR leukemia): 386 nM
GI50 (M14 melanoma): 2090 nM
TGI (M14 melanoma): 23.2 µM
GI50 (NCI/ADR-RES ovarian): 1.48 µM
TGI (NCI/ADR-RES ovarian): 9.95 µM
GI50 (HCC-2998 colon): 4190 nM
TGI (HCC-2998 colon): 14.9 µM

Cc1ccc(C2=C(c3ccccc3)C(c3ccccc3)Oc3ccc(C)cc32)cc1 (stereo unspecified)
GI50 (TK-10 renal): 13.7 µM
TGI (TK-10 renal): 32.4 µM
GI50 (HCT-15 colon): 16.9 µM
TGI (HCT-15 colon): 35.8 µM
GI50 (U251 CNS): 14800 nM
TGI (U251 CNS): 28.5 µM
GI50 (MDA-MB-435): 8500 nM
TGI (MDA-MB-435): 26.8 µM
GI50 (HOP-62 NSCLC): 3090 nM
TGI (HOP-62 NSCLC): 7.71 µM
GI50 (SR leukemia): 16500 nM
TGI (SR leukemia): 38.4 µM
GI50 (M14 melanoma): 1560 nM
TGI (M14 melanoma): 3.05 µM
GI50 (NCI/ADR-RES ovarian): 2.18 µM
TGI (NCI/ADR-RES ovarian): 5.35 µM
GI50 (HCC-2998 colon): 1640 nM
TGI (HCC-2998 colon): 3.1 µM

O=[n+]1c2ccccc2n([O-])c2cc(Cl)ccc21
GI50 (TK-10 renal): 4.96 µM
TGI (TK-10 renal): 18 µM
GI50 (HCT-15 colon): 2.55 µM
TGI (HCT-15 colon): 8.59 µM
GI50 (U251 CNS): 2710 nM
TGI (U251 CNS): 12 µM
GI50 (MDA-MB-435): 11300 nM
TGI (MDA-MB-435): 23.7 µM
GI50 (HOP-62 NSCLC): 3150 nM
TGI (HOP-62 NSCLC): 10.9 µM
GI50 (COLO 205 colon): 4.65 µM
TGI (COLO 205 colon): 18.2 µM
GI50 (SR leukemia): 2190 nM
TGI (SR leukemia): 7.53 µM
GI50 (M14 melanoma): 10700 nM
TGI (M14 melanoma): 29.9 µM
GI50 (NCI/ADR-RES ovarian): 4.31 µM
TGI (NCI/ADR-RES ovarian): 40.3 µM
GI50 (HCC-2998 colon): 6810 nM
TGI (HCC-2998 colon): 20.5 µM
